Reference: patent publication US8372967B2, “Compounds and methods for modulating expression of GCCR” (Isis Pharmaceuticals, Inc., priority 2006, dated 2013)
Strand notation (5' to 3'): a small letter for the sugar, then the base; units joined by * are phosphorothioate-linked, units joined directly phosphodiester-linked; [ ] holds rarer units or linkages, { } end groups; capitals alone tell only the bases. [PAM-N] = nucleoside carrying a 2'-(butylacetamido)-palmitamide group (palmitic acid C16 conjugate) (N: the base); e = 2'-O-(2-methoxyethyl) (MOE); l = locked nucleic acid (LNA); [5mC] = 5-methylcytosine; d = 2'-deoxy (DNA)

Assays:
Type in all cases: in vivo, mouse
ApoB mRNA [1] = experiment: ApoB mRNA level in liver, Balb/c mice dosed i.p. twice per week for three weeks (Table 29); EC50 in liver; conditions: for ApoB mRNA level: Table 30, Balb/c mice; for % ApoB mRNA Level (relative to saline control): liver, Balb/c mice
Method: Prior to quantitative PCR analysis, primer-probe sets specific to the target gene being measured were evaluated for their ability to be “multiplexed” with a GAPDH amplification reaction. After isolation the RNA is subjected to sequential reverse transcriptase (RT) reaction and real-time PCR, both of which are performed in the same well. RT and PCR reagents were obtained from Invitrogen Life Technologies (Carlsbad, Calif.). […] The RT reaction was carried out by incubation for 30 minutes at 48° C. Following a 10 minute incubation at 95° C. to activate the PLATIN 9M® Taq, 40 cycles of a two-step PCR protocol were carried out: 95° C. for 15 seconds (denaturation) followed by 60° C. for 1.5 minutes (annealing/extension).
170 μL of RiboGreen® working reagent (RiboGreen® reagent diluted 1:350 in 10 mM Tris-HCl, 1 mM EDTA, pH 7.5) was pipetted into a 96-well plate containing 30 μL purified cellular RNA. The plate was read in a CytoFluor® 4000 (PE Applied Biosystems) with excitation at 485 nm and emission at 530 nm.
(§1) Antisense compound doses included 2.4, 1.2, 0.6, 0.3 and 0.15 μmol/kg. For antisense compounds 14 nucleotides in length, these doses equate to approximately 12, 6, 3, 1.5 or 0.75 mg/kg, respectively. Shown in Table 25 are the sequences and motifs of the antisense compounds used in this study. […] Bolded residues indicate 2′-O-methoxyethyl moieties and italicized residues indicate methyleneoxy (4′-CH2—O-2′) BNAs. The internucleoside linkages of each compound are phosphorothioate throughout. All cytosine residues of ISIS 147764 and ISIS 372938 are replaced by 5-methyl cytosines. For ISIS 387462, only the cytosine residue in the wing of the compound is replaced by 5-methyl cytosine. ApoB antisense compounds are targeted to publicly available ApoB-100 sequences, including Genbank Accession No. XM—137955.5 (SEQ ID NO: 2).
(§2) Forty-eight hours following the final injection, mice were sacrificed to evaluate transaminases (Table 26); liver and kidney weight (Table 27); triglyceride, LDL, HDL and free fatty acid levels (Table 28); target mRNA level in liver (Table 29); target protein level in plasma; and oligonucleotide tissue concentration (Table 30). These endpoints were determined using methods described herein and well known to those of ordinary skill in the art.
The EC50 for ISIS 387462 in the liver was determined by comparing oligonucleotide concentration in the liver to inhibition of ApoB mRNA.

[2] = ALT and AST levels and adverse side effects, ApoB study (Table 26); conditions: Balb/c mice, i.p. twice per week for three weeks, 48 h after final injection
Method: as §1, §2

[3] = Liver and kidney weight, body weight, food consumption, glucose, ApoB study (Table 27); conditions: Balb/c mice, i.p. twice per week for three weeks
Method: as §1, §2
Glucose levels also were similar among all treatment groups.

[4] = Triglyceride, total cholesterol, HDL, LDL and free fatty acid levels, ApoB study (Table 28); design: Free Fatty Acid (FFA): unit not given here; conditions: Balb/c mice, i.p. twice per week for three weeks
Method: as §1, §2

[5] = Full-length and total antisense compound tissue concentration in liver and kidney, ApoB study (Table 30); conditions: Balb/c mice, i.p. twice per week for three weeks, 2.4 μmol/kg
Method: as §1, with “ApoB antisense compounds are targeted to publicly available ApoB-100 sequences, including Genbank Accession No. XM—137955.5 (SEQ ID NO: 2).” left out
as §2
To determine whether the observed increase in efficiency with the methyleneoxy (4′-CH2—O-2′) BNA gapmer is due to an increase in oligonucleotide accumulation, full-length and total oligonucleotide concentration in the liver and kidney were determined.

PTEN mRNA = PTEN mRNA levels in liver, kidney and fat, Balb/c mice, single i.p. 8 μmol/kg (Table 48); conditions: 72 h, saline = 100
Text: (§3) Each dose group consisted of four animals. Shown in Table 46 are the sequences and motifs of the PTEN antisense compounds used in this study. Bolded residues indicate 2′-O-methoxyethyl moieties (2′-MOE) and italicized residues indicate Methyleneoxy BNA nucleotides. Each antisense compound comprises phosphorothioate linkages throughout. In addition, the cytosine residues in the gap of ISIS 384073 and in the wings of ISIS 392056, ISIS 392057, ISIS 392061 and ISIS 392063 are replaced with 5-methylcytosines. Antisense compounds target published PTEN nucleic acids, including Genbank Accession No. U92437.1 (SEQ ID
(§4) Mice were sacrificed 72 hours following injection to determine serum transaminase levels (Table 47); liver and spleen weights (Table 47); and PTEN mRNA levels in liver, kidney and fat (Table 48), according to procedures described herein and well know to one of ordinary skill in the art.

[6] = Transaminase levels and organ weights, PTEN study (Table 47); conditions: single i.p. 8 μmol/kg, 72 h
Text: as §3, §4

ApoB mRNA [7] = experiment: ApoB mRNA in liver, Balb/c mice, BNA short antisense compounds twice per week for three weeks (Table 89); conditions: relative to saline
Method: The short antisense compounds shown in Table 88 were tested for their effects in vivo. […] A 5-10-5 MOE gapmer was used for a control treatment. Mice were sacrificed approximately 48 hours following the final dose. Liver tissue was collected for RNA isolation, and blood was collected for serum chemistry analyses. ApoB mRNA levels were measured by real-time PCR as described herein. ApoB mRNA levels were normalized to RNA levels as determined by RIBOGREEN, and are presented in Table 89 as percent inhibition relative to ApoB mRNA levels in saline-treated control animals.

ApoB mRNA [8] = experiment: ApoB mRNA in liver and ED50, single dose of BNA short antisense compounds (Table 92); conditions: ApoB mRNA in liver, Balb/c mice, relative to saline
Method: (§5) The short antisense compounds tested were ISIS 387462 and ISIS 398296. Each dose group consisted of four animals. A 5-10-5 MOE gapmer was used for a control treatment. Mice were sacrificed approximately 48 hours following the final dose. Liver tissue was collected for RNA isolation, and blood was collected for serum chemistry analyses. ApoB mRNA levels were measured by real-time PCR as described herein. ApoB mRNA levels were normalized to RNA levels as determined by RIBOGREEN, and are presented in Table 92 as percent inhibition relative to ApoB mRNA levels in saline-treated control animals.
At the 8 umol/kg dose, ApoB inhibition by the short antisense compounds was greater than observed with a 5-10-5 MOE gapmer at an equivalent dose. […] Triglycerides were reduced at the highest dose.

[9] = Triglycerides, total cholesterol, HDL-C, LDL-C and adverse effects (Example 30)
Method: as §5, with “0.4,” for “The short antisense compounds tested were ISIS 387462”, “0.16 umol/kg.” for “ISIS 398296.”, “95” for “92”
At the 2.5 umol/kg dose, ApoB inhibition by the short antisense compounds was greater than observed with a 5-10-5 MOE gapmer at an equivalent dose. […] Triglycerides were reduced at the 2.5 and […] doses of ISIS 387462 and ISIS 391872.

147764 (antisense eG*eT*e[5mC]*e[5mC]*e[5mC]*dT*dG*dA*dA*dG*dA*dT*dG*dT*d[5mC]*eA*eA*eT*eG*e[5mC]) [compound 147764]
ApoB mRNA level (ApoB mRNA [1]; 2.4 μmol/kg): 58 % of saline control | AST ([2]; 2.4 μmol/kg): 64.0 IU/L

372938 (antisense eG*eG*dT*dA*d[5mC]*dA*dT*dG*dG*dA*dA*dG*eT*e[5mC]) [compound 372938]
ApoB mRNA level (ApoB mRNA [1]; 2.4 μmol/kg): 77 % of saline control | % ApoB mRNA Level (relative to saline control) (ApoB mRNA [1]; 1.2 μmol/kg): 90.0% | % ApoB mRNA Level (relative to saline control) (ApoB mRNA [1]; 2.4 μmol/kg): 77.0% | AST ([2]; 0.3 μmol/kg): 60.0 IU/L | ALT ([2]; 0.6 μmol/kg): 28.0 IU/L | ALT ([2]; 2.4 μmol/kg): 26.0 IU/L | AST ([2]; 2.4 μmol/kg): 49.0 IU/L | Kidney Weight ([3]; 0.15 μmol/kg): 98 % of saline control | Liver Weight ([3]; 0.15 μmol/kg): 96 % of saline control | Liver Weight ([3]; 0.3 μmol/kg): 91 % of saline control | Liver Weight ([3]; 0.6 μmol/kg): 96 % of saline control | Liver Weight ([3]; 1.2 μmol/kg): 90 % of saline control | Kidney Weight ([3]; 2.4 μmol/kg): 100 % of saline control | Liver Weight ([3]; 2.4 μmol/kg): 100 % of saline control | LDL ([4]; 0.3 μmol/kg): 11.0 mg/dL | Total Cholesterol (CHOL) ([4]; 0.6 μmol/kg): 110 mg/dL | Free Fatty Acid (FFA) ([4]; 1.2 μmol/kg): 1.70 | LDL ([4]; 1.2 μmol/kg): 9.5 mg/dL | HDL ([4]; 2.4 μmol/kg): 79.0 mg/dL | Kidney Full-Length Antisense Compound Tissue Concentration [5]: 32.0 µM | Kidney Total Antisense Compound Tissue Concentration [5]: 34.0 µM

391172 (antisense lC*lT*dA*dG*dC*dC*dT*dC*dT*dG*dG*dA*lT*lT*lT) [compound 391172]
% PTEN mRNA levels in Kidney (PTEN mRNA): 63% | % PTEN mRNA levels in Liver (PTEN mRNA): 18% | Liver Weight [6]: 120 % Saline

392061 (antisense l[5mC]*lT*dA*dG*dC*dC*dT*dC*dT*dG*dG*dA*lT*lT) [compound 392061]
% PTEN mRNA levels in Fat (PTEN mRNA): 85% | % PTEN mRNA levels in Kidney (PTEN mRNA): 61% | % PTEN mRNA levels in Liver (PTEN mRNA): 24% | ALT [6]: 42.0 IU/L

398296 (GGTACATGGAAGTC; 2-10-2 (6'S)-6'-methyl BNA gapmer, chemistry not fully specified) [compound 398296]
% Inhib (ApoB mRNA [7]; i.p. 0.1 umol/kg twice per week for three weeks): 17% | % Inhib (ApoB mRNA [7]; i.p. 0.32 umol/kg twice per week for three weeks): 35% | % Inhib (ApoB mRNA [7]; i.p. 1 umol/kg twice per week for three weeks): 80% | % Inhib (ApoB mRNA [7]; i.p. 3.2 umol/kg twice per week for three weeks): 98% | % Inhib (ApoB mRNA [8]; single i.p. injection 1 umol/kg): 19% | % Inhib (ApoB mRNA [8]; single i.p. injection 2 umol/kg): 54% | % Inhib (ApoB mRNA [8]; single i.p. injection 4 umol/kg): 81% | % Inhib (ApoB mRNA [8]; single i.p. injection 8 umol/kg): 97%

ISIS 391872: GGTACATGGAAGTC 1-1-10-2 2′-(butylacetomido)-palmitamide Methyleneoxy BNA/Methyleneoxy BNA, Unmodified cytosines in gap, ApoB ([PAM-G]*lG*dT*dA*dC*dA*dT*dG*dG*dA*dA*dG*lT*l[5mC])
Triglycerides ([9]; at the 2.5 and 1.0 mg/kg doses): reduced | total cholesterol, HDL-C and LDL-C ([9]; in a dose-dependent manner): markedly reduced
